Patent US20250326769A1, “HETEROAROMATIC MACROCYCLIC ETHER CHEMOTHERAPEUTIC AGENTS” (Nuvalent, Inc., priority 2022, published 2025)

How the values were obtained:
ALK I1171N/D1203N = ALK I1171N/D1203N (Homo sapiens (Human), UniProt Q9UM73, D1203N/I1171N); assay: Biochemical kinase assay, ALK I1171N/D1203N; settings: apparent inhibitory constant, kinase domain, Morrison equation; read-out: ALK-I1171N-D1203N Ki^app
Method: (§1) First, 250 nL of compound dissolved in DMSO (100-fold of the desired concentration) was dispensed into a 384-well plate. A 12.5 μL substrate solution containing ATP (2 mM) and fluorogenic phosphorylation substrate AQT0101 ([…] for ALK and ROS, AssayQuant) or AQT0104 (26 μM for TRKB, AssayQuant) in buffer (50 mM HEPES pH 7.5, […], 0.5 mM EGTA, 10 mM MgCl2) was added and mixed thoroughly. Then, a 12.5 μL kinase solution containing ALK (1.5 nM, Carna, 08-518), ALK I1171N/D1203N (4 nM, SignalChem, custom-made), ROS1 (0.6 nM, Carma, 08-163), ROS1-G2032R (0.5 nM, SignalChem, R14-121BG), or TRKB-wt (1.5 nM, SignalChem, N17-11G) kinase domains in buffer ([…] pH 7.5, 0.01% Brij-[…], 0.4 mg/mL BSA, 0.5 mM EGTA, and 10 mM MgCl2) was added and mixed thoroughly. The plate was sealed and read by SpectraMax Paradigm at λ=485 nm every 2 minutes for 120 minutes at 30° C. Initial rates of reaction (v) were calculated from the change in fluorescence intensity over time during the initial, linear portion of the reaction. Finally, apparent inhibitory constants (Ki^app) were determined from regression of v and I (inhibitor concentration) to Morrison Equation (E=enzyme concentration): […]
(§2) Compound potency can be interpreted by binning Ki^app values against the targets: bin A for high potency, Ki^app<50 nM; bin B for medium potency, 50 nM≤Ki^app<500 nM; and bin C for low potency, Ki^app≥500 nM. […] “nd” means not determined.

TRKB-wt = TRKB-wt (Homo sapiens (Human), UniProt Q16620); assay: Biochemical kinase assay, TRKB-wt; settings: apparent inhibitory constant, kinase domain, Morrison equation; read-out: TRKB-wt Ki^app
Method: as §1, §2

[1] = biological target: Ba/F3 EML4-ALK v1 I1171N/D1203N (Homo sapiens (Human), UniProt Q9HC35+Q9UM73, D1203N/I1171N); assay: Ba/F3 cell proliferation assay, EML4-ALK v1 I1171N/D1203N; assay type: cell-based; settings: for IC50: Ba/F3 stable cells, 72 hours, CellTiter-Glo
Outline: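 Ba/F3 cells made IL-3-independent by retroviral EML4-ALK v1 I1171N/D1203N and selected with puromycin, then treated with 3-fold compound dilutions for 72 h. Viability by CellTiter-Glo luminescence; IC50 from four-parameter logistic fit.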

Ba/F3 ETV6-TRKB = Ba/F3 ETV6-TRKB (Homo sapiens, UniProt Q16620); assay: Ba/F3 cell proliferation assay, ETV6-TRKB; assay type: cell-based; settings: Ba/F3 stable cells, 72 hours, CellTiter-Glo; read-out: ETV6-TRKB IC50
Outline: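 Ba/F3 cells retrovirally transduced with ETV6-TRKB and selected for IL-3-independent growth with puromycin were treated with 3-fold compound dilutions for 72 h. Viability read by CellTiter-Glo luminescence; IC50 from percent inhibition by four-parameter logistic fit.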

[2] = TRKB selectivity, ratio of Ba/F3 IC50 values

Chain of ALK I1171N/D1203N (Q9UM73 1116-1392 I1171N/D1203N): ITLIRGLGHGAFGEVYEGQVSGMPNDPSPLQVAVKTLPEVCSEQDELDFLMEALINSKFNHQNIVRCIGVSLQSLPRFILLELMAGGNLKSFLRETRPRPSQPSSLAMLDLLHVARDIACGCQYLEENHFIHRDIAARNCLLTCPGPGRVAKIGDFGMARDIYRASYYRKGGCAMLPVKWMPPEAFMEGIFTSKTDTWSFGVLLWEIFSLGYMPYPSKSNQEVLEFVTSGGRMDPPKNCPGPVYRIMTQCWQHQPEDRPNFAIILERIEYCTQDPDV
Chain of Ba/F3 ETV6-TRKB (Q16620 32-822 limits assumed, change not shown): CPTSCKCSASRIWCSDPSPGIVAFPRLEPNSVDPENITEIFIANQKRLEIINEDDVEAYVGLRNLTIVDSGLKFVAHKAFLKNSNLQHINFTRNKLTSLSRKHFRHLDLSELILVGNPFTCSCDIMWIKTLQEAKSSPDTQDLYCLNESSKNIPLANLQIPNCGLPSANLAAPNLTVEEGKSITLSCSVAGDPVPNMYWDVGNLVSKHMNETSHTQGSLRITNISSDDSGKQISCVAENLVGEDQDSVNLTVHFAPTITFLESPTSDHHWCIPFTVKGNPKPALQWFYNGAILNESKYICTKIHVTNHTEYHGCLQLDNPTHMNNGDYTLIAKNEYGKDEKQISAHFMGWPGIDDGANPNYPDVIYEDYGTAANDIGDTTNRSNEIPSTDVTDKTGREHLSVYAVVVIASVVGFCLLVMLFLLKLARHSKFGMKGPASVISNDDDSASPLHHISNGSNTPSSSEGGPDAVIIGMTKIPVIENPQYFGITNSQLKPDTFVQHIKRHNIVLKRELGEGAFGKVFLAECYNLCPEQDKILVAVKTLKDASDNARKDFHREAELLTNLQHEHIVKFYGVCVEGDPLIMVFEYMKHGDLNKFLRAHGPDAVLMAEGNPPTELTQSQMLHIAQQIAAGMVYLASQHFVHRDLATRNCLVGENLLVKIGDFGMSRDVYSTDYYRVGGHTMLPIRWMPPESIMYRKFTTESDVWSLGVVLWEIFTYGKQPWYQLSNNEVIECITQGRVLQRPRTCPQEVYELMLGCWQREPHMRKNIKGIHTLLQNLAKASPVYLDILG
Chain of TRKB-wt (Q16620 538-807): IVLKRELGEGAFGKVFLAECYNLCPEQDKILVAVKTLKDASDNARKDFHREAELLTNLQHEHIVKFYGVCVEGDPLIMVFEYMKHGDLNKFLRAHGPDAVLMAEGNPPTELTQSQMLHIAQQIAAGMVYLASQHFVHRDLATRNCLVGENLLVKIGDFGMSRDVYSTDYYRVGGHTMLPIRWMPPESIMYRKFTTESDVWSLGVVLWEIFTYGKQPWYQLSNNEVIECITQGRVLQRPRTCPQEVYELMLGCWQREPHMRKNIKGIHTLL
Chain of Ba/F3 EML4-ALK v1 I1171N/D1203N (Q9UM73 other isoform, or with tags, fused parts or gaps I1171N/D1203N): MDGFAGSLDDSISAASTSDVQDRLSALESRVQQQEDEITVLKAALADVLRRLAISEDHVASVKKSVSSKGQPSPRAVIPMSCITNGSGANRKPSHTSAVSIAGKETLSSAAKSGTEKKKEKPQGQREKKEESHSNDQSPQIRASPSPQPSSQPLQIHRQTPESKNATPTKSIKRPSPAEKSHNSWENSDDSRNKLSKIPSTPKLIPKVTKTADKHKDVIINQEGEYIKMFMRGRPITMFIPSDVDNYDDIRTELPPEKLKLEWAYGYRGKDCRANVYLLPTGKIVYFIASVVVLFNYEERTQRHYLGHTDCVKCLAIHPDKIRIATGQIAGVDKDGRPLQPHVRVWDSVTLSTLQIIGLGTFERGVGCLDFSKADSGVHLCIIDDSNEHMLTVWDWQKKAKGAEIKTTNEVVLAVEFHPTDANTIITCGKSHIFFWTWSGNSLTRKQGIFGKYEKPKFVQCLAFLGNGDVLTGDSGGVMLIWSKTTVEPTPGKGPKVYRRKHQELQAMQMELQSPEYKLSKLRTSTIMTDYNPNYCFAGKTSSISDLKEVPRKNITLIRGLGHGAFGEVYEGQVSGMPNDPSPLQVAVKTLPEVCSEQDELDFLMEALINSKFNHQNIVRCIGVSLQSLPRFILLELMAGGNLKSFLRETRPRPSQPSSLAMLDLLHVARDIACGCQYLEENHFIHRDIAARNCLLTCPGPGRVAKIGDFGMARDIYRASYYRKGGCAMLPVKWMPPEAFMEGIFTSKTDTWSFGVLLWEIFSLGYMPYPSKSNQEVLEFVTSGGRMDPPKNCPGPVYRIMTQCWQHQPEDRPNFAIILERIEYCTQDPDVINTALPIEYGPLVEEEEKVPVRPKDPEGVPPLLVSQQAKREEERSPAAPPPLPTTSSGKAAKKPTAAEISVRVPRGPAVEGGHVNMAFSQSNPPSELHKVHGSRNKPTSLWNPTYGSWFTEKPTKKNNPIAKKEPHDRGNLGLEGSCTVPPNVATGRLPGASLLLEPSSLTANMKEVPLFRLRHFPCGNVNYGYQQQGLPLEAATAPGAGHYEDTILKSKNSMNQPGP

| Structure (SMILES) | Ki (ALK I1171N/D1203N) | Ki (TRKB-wt) | IC50 [1] | ETV6-TRKB / EML4-ALK v1 I1171N/D1203N [1, 2] | IC50 (Ba/F3 ETV6-TRKB) | Selectivity for Ba/F3 EML4-ALK v1 I1171N-D1203N IC50 over Ba/F3 ETV6-TRKB IC50 ([1]; TRKB selectivity, ratio of Ba/F3 IC50 values, Table 6 bins) |
| --- | --- | --- | --- | --- | --- | --- |
| CC1CCCN1C(=O)c1nn(CC2CC2)c2c1Cc1cn(C)nc1-c1ccc(F)cc1[C@@H](C)Oc1cc-2cnc1N (stereo partly drawn) [Example 31, {(R)-22-amino-3-(cyclopropylmethyl)-16-fluoro-10-methyl-19-methyl-20-oxa-3,4,10,11,23-pentaazapentacyclo[19.3.1.0^2,^6.0^8,^12.0^13,^18]pentacosa-1(24),2(6),4,8,11, 13,15,17,21(25),22-decaen-5-yl}(2-methyl-1-pyrrolidinyl)methanone] | < 50 nM | ≥ 500 nM | 0.1 to 50 nM | A (bin A for very high selectivity, ratio≥30-fold) | > 500 nM | – |
| C[C@H]1Oc2cc(cnc2N)-c2c(c(C(=O)N(C)C)nn2CC2CCC2)Cc2cn(C)nc2-c2ccc(F)cc21 [Example 33, (19R)-22-amino-3-(cyclobutylmcthyl)-16-fluoro-N,N,10,19-tetramethyl-20-oxa-3,4,10,11,23-pentaazapentacyclo[19.3.1.0^2,^6.0^8,^12.0^13,^18]pentacosa-1(24),2(6),4,8,11,13,15,17,21(25),22-decaene-5-carboxamide] | < 50 nM | ≥ 500 nM | 50 to 500 nM | A (bin A for very high selectivity, ratio≥30-fold) | > 500 nM | – |
| CON(C)C(=O)c1nn(CC2CC2)c2c1Cc1cn(C)nc1-c1ccc(F)cc1[C@@H](C)Oc1cc-2cnc1N [Example 34, N-methoxy-N-methyl-(R)-22-amino-3-(cyclopropylmethyl)-16-fluoro-10-methyl-19-methyl-20-oxa-3,4,10,11,23-pentaazapentacyclo[19.3.1.0^2,^6.0^8,^12.0^13,^18]pentacosa-1(24),2(6),4,8,11,13,15,17,21(25),22-decaene-5-carboxamide] | < 50 nM | 50 to 500 nM | 0.1 to 50 nM | B (bin B for high selectivity, ratio≥10-fold but<30) | > 500 nM | – |
| C[C@H]1Oc2cc(cnc2N)-c2c(c(C(=O)N(C)CC(F)(F)F)nn2CC2CC2)Cc2cn(C)nc2-c2ccc(F)cc21 [Example 36, (19R)-22-amino-3-(cyclopropylmethyl)-16-fluoro-N,10,19-trimethyl-N-(2,2,2-trifluoroethyl)-20-oxa-3,4,10,11,23-pentaazapentacyclo[19.3.1.0^2,^6.0^8,^12.0^13,^18]pentacosa-1(24),2(6),4,8,11,13,15,17,21(25),22-decaene-5-carboxamide] | < 50 nM | ≥ 500 nM | 50 to 500 nM | A (bin A for very high selectivity, ratio≥30-fold) | > 500 nM | – |
| C[C@H]1Oc2cc(cnc2N)-c2c(c(C(=O)N(C)C)nn2CC2CC2)Oc2cccnc2-c2ccc(F)cc21 [Example 39, N,N-dimethyl-(R)-23-amino-3-(cyclopropylmethyl)-17-fluoro-20-methyl-7,21-dioxa-3,4,12,24-tetraazapentacyclo[20.3.1.0^2,6.0^8,13.0^14,19]hexacosa-1(25),2(6),4,8(13),9,11,14,16,18,22(26),23-undecaene-5-carboxamide] | < 50 nM | ≥ 500 nM | 0.1 to 50 nM | A (bin A for very high selectivity, ratio≥30-fold) | > 500 nM | – |
| C[C@H]1Oc2cc(cnc2N)-c2c(c(C(=O)N(C)C3CC3)nn2CC2CC2)Cc2cn(C)nc2-c2ccc(F)cc21 [Example 40, N-cyclopropyl-N-methyl-(R)-22-amino-3-(cyclopropylmethyl)-16-fluoro-10-methyl-19-methyl-20-oxa-3,4,10,11,23-pontaazapentacyclo[19.3.1.0^2,^6.0^8,^12.0^13,^18]pentacosa-1(24),2(6),4,8,11,13,15,17,21(25),22-decaene-5-carboxamide] | < 50 nM | ≥ 500 nM | 50 to 500 nM | A (bin A for very high selectivity, ratio≥30-fold) | > 500 nM | – |
| C[C@H]1Oc2cc(cnc2N)-c2c(CC3CC3)nc(C(=O)N(C)C)n2Cc2cn(C)nc2-c2ccc(F)cc21 [Example 41, N,N-dimethyl-(R)-22-amino-3-(cyclopropylmethyl)-16-fluoro-10-methyl-19-methyl-20-oxa-4,6,10,11,23-pentaazapentacyclo[19.3.1.0^2,6.0^8,12.0^13,18]pentacosa-1(24),2,4,8,11,13,15,17,21(25),22-decaene-5-carboxamide] | < 50 nM | ≥ 500 nM | 0.1 to 50 nM | A (bin A for very high selectivity, ratio≥30-fold) | > 500 nM | – |
| Cc1cc2n(n1)-c1ccc(F)cc1[C@@H](C)Oc1cc(cnc1N)-c1c(c(C(=O)N(C)C)nn1CC1CC1)C2 [Example 42, N,N-dimethyl-(R)-22-amino-3-(cyclopropylmethyl)-16-fluoro-10,19-dimethyl-20-oxa-3,4,11,12,23-pentaazapentacyclo[19.3.1.0^2,^6.0^8,^12.0^13,^18]pentacosa-1(24),2(6),4,8,10,13,15,17,21(25),22-decaene-5-carboxamide] | < 50 nM | ≥ 500 nM | 50 to 500 nM | A (bin A for very high selectivity, ratio≥30-fold) | > 500 nM | – |
| CCn1nc(C(=O)N(C)C)c2c1-c1cnc(N)c(c1)O[C@H](C)c1cc(F)ccc1-c1ncccc1C2 [Example 43, N,N-dimethyl-(R)-23-amino-3-ethyl-17-fluoro-20-methyl-21-oxa-3,4,12,24-tetraazapentacyclo[20.3.1.0^2,^6.0^8,^13.0^14,^19]hexacosa-1(25),2(6),4,8(13),9,11,14,16,18,22(26),23-undecaene-5-carboxamide] | < 50 nM | < 50 nM | 0.1 to 50 nM | B (bin B for high selectivity, ratio≥10-fold but<30) | 0.1 to 50 nM | BB (bin BB for the selectivity with the ratio≥10-fold but<30) |
| CCOC(=O)c1nn(CC2CC2)c2c1Oc1cccnc1-c1ccc(F)cc1[C@@H](C)Oc1cc-2cnc1N [Example 55, ethyl (20R)-23-amino-3-(cyclopropylmethyl)-17-fluoro-20-methyl-7,21-dioxa-3,4,12,24-tetraazapentacyclo[20.3.1.0^2,^6.0^8,^13.0^14,^19]hexacosa-1(25),2(6),4,8(13),9,11,14,16,18,22(26),23-undecaene-5-carboxylate] | < 50 nM | ≥ 500 nM | 50 to 500 nM | B (bin B for high selectivity, ratio≥10-fold but<30) | > 500 nM | – |
| CSc1nn(CC2CC2)c2c1Cc1cn(C)nc1-c1ccc(F)cc1[C@@H](C)Oc1cc-2cnc1N [Example 56, (R)-3-(cyclopropylmethyl)-16-fluoro-10-methyl-19-methyl-5-(methylthio)-20-oxa-3,4,10,11,23-pentaazapentacyclo[19.3.1.0^2,^6.0^8,^12.0^13,^18]pentacosa-1(25),2(6),4,8,11,13,15,17,21,23-decaen-22-ylamine] | 50 to 500 nM | ≥ 500 nM | 50 to 500 nM | C (bin C for moderate selectivity, ratio≥1 but<10) | > 500 nM | – |
